{
  "source": "patent US12357924B2",
  "about": "“Process for producing enriched fraction from Bacopa monnieri extract for management of neurodegenerative disorders” (STAR HI HERBS PVT LTD, priority 2021, dated 2025)",
  "key": {"[1]": {"system": "locomotor activity of the rats", "experiment": "Actophotometer method (locomotor activity)", "type": "in vivo, Wistar strain rats", "details": "diazepam 1 mg/kg", "experimental": "In further embodiment of the present invention the anxiolytic effect of Bacopa monnieri extract Bacosane is determined by employing 4 different tests i.e., the elevated plus maze (EPM) test, open field test (OFT), Astrophotometer test and Light dark transition test. The compounds used in these four tests comprises Bacopa monnieri extract Bacosane; and Diazepam (1 mg/kg, i.p.) which is used as standard anxiolytic agent. The four tests are performed on Wistar strain rats of both sex of weighing 130 to 180 g, which were divided into four groups of six rats each (Group I, Group II, Group III and Group IV)\nIn this test, the rats are placed in the digital Actophotometer in which a constant beam of light from six lights will be made to fall on corresponding photoelectric cells. The photoelectric cells get activated when an animal crosses the beam of light and thereby cuts off (crossing) the rays of light falling on it. After 1 hour of Bacopa Monnieri extract Bacosane administration the numbers of crossings are counted for a period of 10 minutes by the actophotometer. […]"}, "[2]": {"system": "behavior of rats in open field", "experiment": "Open field test", "type": "in vivo, Wistar strain rats", "details": "5 minutes; Diazepam 1 mg/kg, Bacosane 50 mg/kg and 100 mg/kg; vs normal saline", "method": "(§1) In further embodiment of the present invention the anxiolytic effect of Bacopa monnieri extract Bacosane is determined by employing 4 different tests i.e., the elevated plus maze (EPM) test, open field test (OFT), […] test and Light dark transition test. The compounds used in these four tests comprises Bacopa monnieri extract Bacosane; and Diazepam (1 mg/kg, i.p.) which is used as standard anxiolytic agent. The four tests are performed on Wistar strain rats of both sex of weighing 130 to 180 g, which were divided into four groups of six rats each (Group I, Group II, Group III and Group IV)\n(§2) Group I vehicle (normal saline) at a dose of 10 ml/kg body weight\n(§3) Group II received Bacopa monnieri extract Bacosane, at a dose of 50 mg/kg body weight\n(§4) Group III received Bacopa monnieri extract Bacosane, at a dose of 100 mg/kg body weight\n(§5) Group IV received standard drug, diazepam 1 mg/kg body weight\nFIG. 11 depicts comparison of effect of Bacopa monnieri extract Bacosane and Diazepam on behavior of rats in open field test. The apparatus comprises a wooden box (60×60×60 cm). The area of the open field was divided into 16 squares (15×15 cm), the four inner squares in the center and 12 squares in the periphery along the walls. The other identical condition comprises of sound attenuated and dark experimental room. […]"}, "[3]": {"system": "behavior of rats in elevated plus maze", "experiment": "Elevated plus maze test", "type": "in vivo, Wistar strain rats", "details": "5 minutes test; Bacosane 50 and 100 mg/kg p.o., diazepam 1 mg/kg; vs vehicle", "method": "as §1, §2, §3, §4, §5\nFIG. 9 depicts comparison of effect of Bacopa monnieri extract Bacosane and diazepam in behavior of rats in elevated plus maze test. […] The percentage of time spent (duration) in open arms and frequency of open arm entries were counted for a period of 5 minutes. […] The percentage of time spent in the open arms and number of open arm entries were calculated using the formulas [100×open/(open+enclosed)] and (100×open/total entries), respectively."}, "[4]": {"system": "MES induced convulsion", "experiment": "Maximal electroshock induced seizures (MES) model", "type": "in vivo, albino Wister rats", "method": "(§6) In further embodiment of the present invention the anticonvulsant activity of Bacopa monnieri extract Bacosane is determined using Pentylenetetrazole (PTZ) and the maximal electroshock seizure (MES) models. The analysis is performed on healthy Swiss mice of either sex, weighing about 25-30 g and Wistar rats of either sex, weighing about 150-200 g. The animals were grouped and housed in polyacrylic cages (38×23×10 cm) with not more than six animals per cage and maintained under standard laboratory conditions (temperature 25° C.) with dark and light cycle (12/12 h). All the animals were acclimatized to laboratory condition for a week before commencement of the analysis. The animals were randomly allocated into four groups of six each: Group I (control group), Group II, Group III, Group IV.\nGroup-I received 10 ml/kg of 1% NaCMC p.o. which served as control.\nGroup-II received phenytoin sodium (25 mg/kg, orally) as standard controls in MES method and PTZ induced seizures method respectively.\nGroup-III and IV were administered two graded doses of Bacopa monnieri extract Bacosane i.e., 50 mg/kg and 100 mg/kg, respectively, p.o.\nIn the above analysis the percentage protection of animals was recorded as percentage of reduction in duration of seizures wherein the control group is assumed as 100%. The observations of group II, III and IV were compared with control Group-I. It is observed that Bacopa monnieri extract Bacosane has potential anticonvulsant activity due to the presence of certain active phytoconstituents. The anticonvulsant activity of Bacopa monnieri extract Bacosane involves GABAergic transmission and glutaminergic transmission or sodium channel blockage. However, it can be considered that the Bacopa monnieri extract Bacosane as a potent anticonvulsant supplement. The analysis and observations of Pentylenetetrazole (PTZ) and the maximal electroshock seizure (MES) models is shown in FIG. 3 to FIG. 6.\nFIG. 3 is the graphical representation of effect of Bacopa Monnieri extract Bacosane on tonic extension phase in MES induced convulsion. […]"}, "[5]": {"system": "PTZ induced tonic-clonic convulsions", "experiment": "Pentylenetetrazole (PTZ) induced convulsions model", "type": "in vivo, rats", "details": "phenytoin sodium 25 mg/kg orally", "method": "as §6\nGroup-I received 10 ml/kg of 1% NaCMC p.o. which served as control. […]\nIn the above analysis the percentage protection of animals was recorded as percentage of reduction in duration of seizures wherein the control group is assumed as 100%. […]\nFIG. 5 depicts graphical representation of effect of Bacopa Monnieri extract Bacosane on tonic-clonic convolution in Pentylenetetrazole (PTZ) induced model in rats. […] The onset of convulsions, number of animals that convulsed and number of animals that were protected from clonic convulsions were recorded."}, "[6]": {"system": "hippocampus", "details": "sub-chronic and chronic administration, 30 mg/kg; cited from earlier work"}, "[7]": {"experiment": "DPPH free radical scavenging assay", "type": "biochemical", "details": "0.1 mM DPPH in methanol, 30 minutes, absorbance at 517 nm", "experimental": "The free radical scavenging activity of Bacopa monnieri extract Bacosane and BHT is determined through the process comprising steps of: preparing solution of 0.1 mM DPPH in methanol, and 1.5 mL of this solution was mixed with 1.5 mL of extract in methanol at different concentrations (50, 100, 150, 200 and 250 m/mL); and measuring the absorbance at 517 nm, after leaving the above mixture for 30 minutes of incubation at dark room. Butylated hydroxytoluene (BHT) was used as the reference standard at different concentrations (20, 40, 60, 80 and 100 m/m1). The radical scavenging activity of DPPH was calculated using the following equation: [A0-A1)/A0]×100 where A0 is the absorbance of the control, and A1 is the absorbance of the standard. Then the percentage (%) of inhibition was plotted against concentration of the Bacopa monnieri extract Bacosane and BHT, and from the graph as shown in FIGS. 7A-7B half-maximal inhibitory concentration (IC50) was calculated to determine the efficacy of Bacopa monnieri extract Bacosane in comparison to standard butylated hydroxytoluene (BHT)."}},
  "data": [
    {"smiles": "CN1C(=O)CN=C(c2ccccc2)c2cc(Cl)ccc21", "note": "[Diazepam]", "values": [
      {"measurement": "number of crossings of light beams compared to control group", "setting": "[1]", "result": "significantly reduced"},
      {"measurement": "anxiolysis (increased ambulation, rearing and preening, decreased defecations)", "setting": "[2]", "result": "significantly exhibited anxiolysis"},
      {"measurement": "closed arm number of entries and time spent", "setting": "[3]", "result": "significantly decreased"},
      {"measurement": "percentage of number of open arm entries and time spent in open arm", "setting": "[3]", "result": "significant increase"}
    ]},
    {"smiles": "O=C1NC(=O)C(c2ccccc2)(c2ccccc2)N1", "note": "[Phenytoin, phenytoin sodium]", "values": [
      {"measurement": "hind limb tonic extension", "setting": "[4]; MES model, compared to control group", "result": "decreased"},
      {"measurement": "extensor phase", "setting": "[4]; MES model, phenytoin sodium 25 mg/kg orally", "result": "abolished the extensor phase completely"},
      {"measurement": "protection in animals against MES", "setting": "[4]; phenytoin sodium 25 mg/kg orally", "result": 100, "unit": "%"},
      {"measurement": "anticonvulsant effect (latency, onset of clonic convulsions, onset of tonic seizures)", "setting": "[5]; PTZ 90 mg/kg i.p., Bacosane 50 and 100 mg/kg orally", "result": "significantly anticonvulsant activity"},
      {"measurement": "protection", "setting": "[5]; PTZ model", "result": 100, "unit": "%"}
    ]},
    {"smiles": "C[C@H]1[C@H](C)CC[C@]2(C(=O)O)CC[C@]3(C)C(=CC[C@@H]4[C@@]5(C)C[C@@H](O)[C@H](O)[C@@](C)(CO)[C@@H]5CC[C@]43C)[C@H]12", "note": "[asiatic acid]", "values": [
      {"measurement": "cell proliferation in the hippocampus", "setting": "[6]", "result": "increase"},
      {"measurement": "spatial working memory", "setting": "[6]", "result": "stimulate"}
    ]},
    {"smiles": "Cc1cc(C(C)(C)C)c(O)c(C(C)(C)C)c1", "note": "[butylated hydroxytoluene (BHT), butylated hydroxytoluene]", "values": [
      {"measurement": "half-maximal inhibitory concentration (IC50), DPPH free radical scavenging", "setting": "[7]", "result": 150.50, "unit": "µg/mL"}
    ]}
  ]
}
